Measured values taken from ChEMBL document CHEMBL4507300 (2021).

Tests used:
[1] = molecular target: Sigma intracellular receptor 2 (Homo sapiens, UniProt Q5BJF2); test: GPCRScan assay: inhibition of Sigma 2; set-up: radioligand conc. used [nm] 5.0, parental cells HEKT
[2] = molecular target: RAC-beta serine/threonine-protein kinase (Homo sapiens) (UniProt P31751); conditions: Compound concentration 1000.0 nM
[3] = tested on: ALK tyrosine kinase receptor (Homo sapiens), Q9UM73 [C1156Y]; conditions: Compound concentration 1000.0 nM
[4] = molecular target: 5'-AMP-activated protein kinase catalytic subunit alpha-1 (Homo sapiens) (UniProt Q13131); conditions: Compound concentration 1000.0 nM
[5] = molecular target: 5'-AMP-activated protein kinase catalytic subunit alpha-2 (Homo sapiens) (UniProt P54646); conditions: Compound concentration 1000.0 nM
[6] = molecular target: Tyrosine-protein kinase Blk (Homo sapiens) (UniProt P51451); conditions: Compound concentration 1000.0 nM
[7] = molecular target: Bone morphogenetic protein receptor type-2 (Homo sapiens) (UniProt Q13873); conditions: Compound concentration 1000.0 nM
[8] = molecular target: Tyrosine-protein kinase BTK (Homo sapiens) (UniProt Q06187); conditions: Compound concentration 1000.0 nM
[9] = molecular target: Calcium/calmodulin-dependent protein kinase type 1D (Homo sapiens) (UniProt Q8IU85); conditions: Compound concentration 1000.0 nM
[10] = molecular target: Cyclin-dependent kinase 4 (Homo sapiens) (UniProt P11802); conditions: Compound concentration 1000.0 nM
[11] = molecular target: Cyclin-dependent kinase-like 1 (Homo sapiens) (UniProt Q00532); conditions: Compound concentration 1000.0 nM
[12] = molecular target: Cyclin-dependent kinase-like 2 (Homo sapiens) (UniProt Q92772); conditions: Compound concentration 1000.0 nM
[13] = molecular target: Cyclin-dependent kinase-like 5 (Homo sapiens) (UniProt O76039); conditions: Compound concentration 1000.0 nM
[14] = molecular target: Casein kinase I isoform delta (Homo sapiens) (UniProt P48730); conditions: Compound concentration 1000.0 nM
[15] = molecular target: Serine/threonine-protein kinase 17B (Homo sapiens) (UniProt O94768); conditions: Compound concentration 1000.0 nM
[16] = molecular target: Epidermal growth factor receptor (Homo sapiens) (UniProt P00533); conditions: Compound concentration 1000.0 nM
[17] = tested on: Epidermal growth factor receptor (Homo sapiens), P00533 [UNDEFINED MUTATION]; conditions: Compound concentration 1000.0 nM
[18] = molecular target: Ephrin type-B receptor 1 (Homo sapiens) (UniProt P54762); conditions: Compound concentration 1000.0 nM
[19] = molecular target: Mitogen-activated protein kinase 7 (Homo sapiens) (UniProt Q13164); conditions: Compound concentration 1000.0 nM
[20] = molecular target: Tyrosine-protein kinase Fgr (Homo sapiens) (UniProt P09769); conditions: Compound concentration 1000.0 nM
[21] = molecular target: Vascular endothelial growth factor receptor 1 (Homo sapiens) (UniProt P17948); conditions: Compound concentration 1000.0 nM
[22] = tested on: Receptor-type tyrosine-protein kinase FLT3 (Homo sapiens), P36888 [UNDEFINED MUTATION]; conditions: Compound concentration 1000.0 nM
[23] = tested on: Receptor-type tyrosine-protein kinase FLT3 (Homo sapiens), P36888 [K663Q]; conditions: Compound concentration 1000.0 nM
[24] = molecular target: Tyrosine-protein kinase Fyn (Homo sapiens) (UniProt P06241); conditions: Compound concentration 1000.0 nM
[25] = molecular target: Beta-adrenergic receptor kinase 1 (Homo sapiens) (UniProt P25098); conditions: Compound concentration 1000.0 nM
[26] = molecular target: Hormonally up-regulated neu tumor-associated kinase (Homo sapiens) (UniProt P57058); conditions: Compound concentration 1000.0 nM
[27] = molecular target: Tyrosine-protein kinase JAK2 (Homo sapiens) (UniProt O60674); conditions: Compound concentration 1000.0 nM
[28] = molecular target: Tyrosine-protein kinase JAK3 (Homo sapiens) (UniProt P52333); conditions: Compound concentration 1000.0 nM
[29] = tested on: Mast/stem cell growth factor receptor Kit (Homo sapiens), P10721 [A829P]; conditions: Compound concentration 1000.0 nM
[30] = molecular target: Serine/threonine-protein kinase LATS1 (Homo sapiens) (UniProt O95835); conditions: Compound concentration 1000.0 nM
[31] = molecular target: Leukocyte tyrosine kinase receptor (Homo sapiens) (UniProt P29376); conditions: Compound concentration 1000.0 nM
[32] = molecular target: Serine/threonine-protein kinase MARK1 (Homo sapiens) (UniProt Q9P0L2); conditions: Compound concentration 1000.0 nM
[33] = molecular target: Myosin light chain kinase (Homo sapiens) (UniProt Q32MK0); conditions: Compound concentration 1000.0 nM
[34] = molecular target: Myosin-IIIb (Homo sapiens) (UniProt Q8WXR4); conditions: Compound concentration 1000.0 nM
[35] = molecular target: Mitogen-activated protein kinase 13 (Homo sapiens) (UniProt O15264); conditions: Compound concentration 1000.0 nM
[36] = molecular target: Serine/threonine-protein kinase PAK 6 (Homo sapiens) (UniProt Q9NQU5); conditions: Compound concentration 1000.0 nM
[37] = molecular target: Cyclin-dependent kinase 18 (Homo sapiens) (UniProt Q07002); conditions: Compound concentration 1000.0 nM
[38] = tested on: Phosphatidylinositol 4,5-bisphosphate 3-kinase catalytic subunit alpha isoform (Homo sapiens), P42336 [C420R]; conditions: Compound concentration 1000.0 nM
[39] = tested on: Phosphatidylinositol 4,5-bisphosphate 3-kinase catalytic subunit alpha isoform (Homo sapiens), P42336 [E545K]; conditions: Compound concentration 1000.0 nM
[40] = molecular target: Receptor-interacting serine/threonine-protein kinase 2 (Homo sapiens) (UniProt O43353); conditions: Compound concentration 1000.0 nM
[41] = molecular target: Testis-specific serine/threonine-protein kinase 1 (Homo sapiens) (UniProt Q9BXA7); conditions: Compound concentration 1000.0 nM
[42] = molecular target: Serine/threonine-protein kinase ULK2 (Homo sapiens) (UniProt Q8IYT8); conditions: Compound concentration 1000.0 nM
[43] = molecular target: Serine/threonine-protein kinase 32C (Homo sapiens) (UniProt Q86UX6); conditions: Compound concentration 1000.0 nM
[44] = molecular target: Histamine H1 receptor (Homo sapiens, UniProt P35367); conditions: Compound concentration 10.0 uM
[45] = molecular target: Alpha-2A adrenergic receptor (Homo sapiens) (UniProt P08913); conditions: Compound concentration 10.0 uM
Chain of Alpha-2A adrenergic receptor (Homo sapiens) (P08913 whole entry): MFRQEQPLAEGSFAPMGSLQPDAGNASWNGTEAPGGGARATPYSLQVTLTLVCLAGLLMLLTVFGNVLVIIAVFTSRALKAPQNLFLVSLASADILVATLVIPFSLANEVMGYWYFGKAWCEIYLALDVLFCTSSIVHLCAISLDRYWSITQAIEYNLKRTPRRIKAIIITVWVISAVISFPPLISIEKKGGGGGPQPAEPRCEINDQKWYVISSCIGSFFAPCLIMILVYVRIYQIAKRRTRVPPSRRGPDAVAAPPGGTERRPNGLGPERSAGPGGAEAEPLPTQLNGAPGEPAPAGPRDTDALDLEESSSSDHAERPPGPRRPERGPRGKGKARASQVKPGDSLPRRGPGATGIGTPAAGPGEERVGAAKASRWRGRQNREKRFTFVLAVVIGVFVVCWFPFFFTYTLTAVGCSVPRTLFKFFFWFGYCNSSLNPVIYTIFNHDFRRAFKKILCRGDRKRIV

Chain of Sigma intracellular receptor 2 (Q5BJF2 whole entry): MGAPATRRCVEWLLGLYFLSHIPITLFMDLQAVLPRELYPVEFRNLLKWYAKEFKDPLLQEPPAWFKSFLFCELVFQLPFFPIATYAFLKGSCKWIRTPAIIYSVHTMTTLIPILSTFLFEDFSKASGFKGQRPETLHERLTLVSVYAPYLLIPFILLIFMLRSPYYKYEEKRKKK
Chain of Phosphatidylinositol 4,5-bisphosphate 3-kinase catalytic subunit alpha isoform (Homo sapiens), P42336 [C420R] (P42336 whole entry C420R, canonical isoform): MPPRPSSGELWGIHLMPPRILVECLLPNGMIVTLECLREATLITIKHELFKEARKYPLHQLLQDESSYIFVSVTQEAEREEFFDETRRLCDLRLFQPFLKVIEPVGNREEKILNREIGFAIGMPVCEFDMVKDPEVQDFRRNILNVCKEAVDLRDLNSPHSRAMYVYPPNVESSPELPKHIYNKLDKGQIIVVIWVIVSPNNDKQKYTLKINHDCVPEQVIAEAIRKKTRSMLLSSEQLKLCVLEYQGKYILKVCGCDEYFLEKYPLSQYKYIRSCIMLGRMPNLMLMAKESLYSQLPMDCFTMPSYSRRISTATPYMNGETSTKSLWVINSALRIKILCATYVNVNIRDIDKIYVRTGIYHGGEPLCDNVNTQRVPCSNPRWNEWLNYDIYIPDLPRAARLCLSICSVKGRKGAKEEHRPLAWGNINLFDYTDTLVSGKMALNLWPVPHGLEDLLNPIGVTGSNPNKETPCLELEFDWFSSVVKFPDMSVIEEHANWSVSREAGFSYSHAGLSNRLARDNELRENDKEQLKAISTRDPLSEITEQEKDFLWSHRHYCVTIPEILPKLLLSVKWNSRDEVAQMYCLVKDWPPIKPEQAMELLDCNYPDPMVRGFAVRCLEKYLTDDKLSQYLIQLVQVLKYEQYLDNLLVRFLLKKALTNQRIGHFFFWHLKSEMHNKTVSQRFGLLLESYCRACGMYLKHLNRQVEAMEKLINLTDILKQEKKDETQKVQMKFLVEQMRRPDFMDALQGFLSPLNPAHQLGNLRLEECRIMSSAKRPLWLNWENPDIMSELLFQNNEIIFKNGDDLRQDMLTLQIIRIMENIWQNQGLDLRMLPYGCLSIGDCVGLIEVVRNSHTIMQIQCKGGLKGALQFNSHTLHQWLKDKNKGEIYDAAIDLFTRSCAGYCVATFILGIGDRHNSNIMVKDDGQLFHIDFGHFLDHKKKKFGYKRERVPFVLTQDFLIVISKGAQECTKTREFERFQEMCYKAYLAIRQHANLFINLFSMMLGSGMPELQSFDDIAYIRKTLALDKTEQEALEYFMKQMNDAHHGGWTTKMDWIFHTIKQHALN
Chain of Serine/threonine-protein kinase MARK1 (Homo sapiens) (Q9P0L2 whole entry, looked up): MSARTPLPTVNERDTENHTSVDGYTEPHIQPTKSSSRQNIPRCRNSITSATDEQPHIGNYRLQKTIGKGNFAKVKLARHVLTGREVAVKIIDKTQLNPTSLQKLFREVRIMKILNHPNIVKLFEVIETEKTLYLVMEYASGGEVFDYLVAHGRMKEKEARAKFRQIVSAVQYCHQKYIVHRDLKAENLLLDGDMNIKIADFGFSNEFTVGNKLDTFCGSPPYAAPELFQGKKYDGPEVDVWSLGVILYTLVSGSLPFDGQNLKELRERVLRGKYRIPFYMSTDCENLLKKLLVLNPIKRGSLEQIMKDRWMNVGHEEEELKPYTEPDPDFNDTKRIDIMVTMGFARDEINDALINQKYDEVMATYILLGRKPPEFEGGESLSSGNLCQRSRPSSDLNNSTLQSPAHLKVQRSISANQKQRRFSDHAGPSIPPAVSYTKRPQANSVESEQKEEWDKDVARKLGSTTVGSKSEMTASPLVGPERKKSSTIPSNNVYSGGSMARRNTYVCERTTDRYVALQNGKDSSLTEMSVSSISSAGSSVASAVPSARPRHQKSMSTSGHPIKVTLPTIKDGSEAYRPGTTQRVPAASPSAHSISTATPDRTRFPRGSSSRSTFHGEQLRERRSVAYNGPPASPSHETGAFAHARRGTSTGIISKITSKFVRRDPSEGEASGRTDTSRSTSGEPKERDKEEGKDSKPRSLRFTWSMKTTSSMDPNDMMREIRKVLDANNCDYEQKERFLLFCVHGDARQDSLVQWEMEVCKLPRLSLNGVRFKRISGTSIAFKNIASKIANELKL
Chain of Testis-specific serine/threonine-protein kinase 1 (Homo sapiens) (Q9BXA7 whole entry): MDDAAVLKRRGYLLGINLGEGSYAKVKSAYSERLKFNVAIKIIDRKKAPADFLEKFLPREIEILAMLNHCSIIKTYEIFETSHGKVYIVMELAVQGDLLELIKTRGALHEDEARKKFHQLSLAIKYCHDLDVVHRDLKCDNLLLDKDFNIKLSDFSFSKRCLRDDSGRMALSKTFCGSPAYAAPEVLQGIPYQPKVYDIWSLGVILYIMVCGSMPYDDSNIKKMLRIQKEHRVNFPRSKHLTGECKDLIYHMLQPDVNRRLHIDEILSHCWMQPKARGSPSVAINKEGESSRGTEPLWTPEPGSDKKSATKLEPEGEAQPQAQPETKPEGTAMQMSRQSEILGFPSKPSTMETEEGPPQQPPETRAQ
Chain of Mitogen-activated protein kinase 7 (Homo sapiens) (Q13164 2-816 limits assumed): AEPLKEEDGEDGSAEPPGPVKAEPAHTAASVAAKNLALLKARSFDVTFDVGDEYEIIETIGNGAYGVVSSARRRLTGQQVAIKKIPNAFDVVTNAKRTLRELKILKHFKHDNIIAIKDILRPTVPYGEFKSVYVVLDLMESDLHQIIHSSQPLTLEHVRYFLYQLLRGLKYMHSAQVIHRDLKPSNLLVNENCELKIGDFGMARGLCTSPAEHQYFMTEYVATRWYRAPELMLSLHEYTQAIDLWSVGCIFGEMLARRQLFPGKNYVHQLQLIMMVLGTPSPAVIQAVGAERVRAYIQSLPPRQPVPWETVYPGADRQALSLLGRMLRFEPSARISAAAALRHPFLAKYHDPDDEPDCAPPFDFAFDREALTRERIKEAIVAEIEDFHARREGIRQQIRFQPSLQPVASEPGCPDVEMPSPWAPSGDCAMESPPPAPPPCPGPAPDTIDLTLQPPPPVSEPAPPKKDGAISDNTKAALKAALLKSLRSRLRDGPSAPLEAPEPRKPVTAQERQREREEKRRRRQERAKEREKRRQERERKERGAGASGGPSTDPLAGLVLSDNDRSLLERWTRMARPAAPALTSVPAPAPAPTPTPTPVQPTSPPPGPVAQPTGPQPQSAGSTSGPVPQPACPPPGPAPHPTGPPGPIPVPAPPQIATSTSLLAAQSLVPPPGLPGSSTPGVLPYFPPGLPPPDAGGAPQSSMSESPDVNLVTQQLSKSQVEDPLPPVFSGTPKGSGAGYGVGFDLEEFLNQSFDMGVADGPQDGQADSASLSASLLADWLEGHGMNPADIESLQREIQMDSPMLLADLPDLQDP
Chain of Tyrosine-protein kinase Fyn (Homo sapiens) (P06241 2-537 limits assumed): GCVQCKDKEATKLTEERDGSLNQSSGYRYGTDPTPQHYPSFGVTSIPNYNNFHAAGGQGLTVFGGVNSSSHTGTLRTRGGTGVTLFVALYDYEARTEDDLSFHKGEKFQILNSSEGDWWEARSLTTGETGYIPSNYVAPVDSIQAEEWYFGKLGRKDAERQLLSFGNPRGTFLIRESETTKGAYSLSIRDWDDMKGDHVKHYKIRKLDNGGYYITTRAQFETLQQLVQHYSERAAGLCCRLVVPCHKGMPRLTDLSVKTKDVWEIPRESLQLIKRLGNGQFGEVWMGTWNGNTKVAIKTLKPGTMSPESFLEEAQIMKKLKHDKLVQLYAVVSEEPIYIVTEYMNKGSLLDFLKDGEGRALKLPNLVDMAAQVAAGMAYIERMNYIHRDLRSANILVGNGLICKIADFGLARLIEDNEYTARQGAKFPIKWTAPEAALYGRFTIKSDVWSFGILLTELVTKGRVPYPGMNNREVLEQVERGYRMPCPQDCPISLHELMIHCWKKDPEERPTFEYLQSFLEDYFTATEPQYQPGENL
Chain of Myosin light chain kinase (Homo sapiens) (Q32MK0 whole entry): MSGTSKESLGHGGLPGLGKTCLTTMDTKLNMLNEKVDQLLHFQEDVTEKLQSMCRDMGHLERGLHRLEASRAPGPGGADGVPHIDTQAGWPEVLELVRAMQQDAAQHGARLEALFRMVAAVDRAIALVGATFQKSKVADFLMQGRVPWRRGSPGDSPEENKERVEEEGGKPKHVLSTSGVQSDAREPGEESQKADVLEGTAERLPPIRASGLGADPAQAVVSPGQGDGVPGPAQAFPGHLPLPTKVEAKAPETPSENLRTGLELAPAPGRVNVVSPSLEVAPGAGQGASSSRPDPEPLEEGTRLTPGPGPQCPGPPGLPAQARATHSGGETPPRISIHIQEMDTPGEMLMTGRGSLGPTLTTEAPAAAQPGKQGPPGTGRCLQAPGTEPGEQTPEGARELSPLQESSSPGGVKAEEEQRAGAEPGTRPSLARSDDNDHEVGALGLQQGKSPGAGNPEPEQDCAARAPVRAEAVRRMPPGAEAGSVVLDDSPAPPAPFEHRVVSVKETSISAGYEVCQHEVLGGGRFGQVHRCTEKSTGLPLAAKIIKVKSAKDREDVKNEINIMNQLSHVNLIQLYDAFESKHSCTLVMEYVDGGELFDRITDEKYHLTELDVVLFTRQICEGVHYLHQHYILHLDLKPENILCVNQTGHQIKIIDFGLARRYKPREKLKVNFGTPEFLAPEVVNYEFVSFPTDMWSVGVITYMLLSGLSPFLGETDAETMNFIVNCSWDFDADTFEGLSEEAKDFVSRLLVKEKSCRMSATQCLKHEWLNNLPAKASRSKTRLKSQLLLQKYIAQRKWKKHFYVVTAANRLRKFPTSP

Structure (SMILES): COc1cccc(CNC(=O)c2nc3scc(COCc4ccc(C(=O)O)cc4)c3c(=O)[nH]2)c1 [T-26c]
- Ki ([1]; read-out: Ki): 4.55 µM
- Ki ([1]; read-out: pKi (converted)): 3.98 µM
- residual activity [2]: 93.3%
- residual activity [3]: 100%
- residual activity [4]: 70.3%
- residual activity [5]: 70.5%
- residual activity [6]: 100%
- residual activity [7]: 71.8%
- residual activity [8]: 63%
- residual activity [9]: 100%
- residual activity [10]: 61.7%
- residual activity [11]: 100%
- residual activity [12]: 66.8%
- residual activity [13]: 89.5%
- residual activity [14]: 100%
- residual activity [15]: 94.4%
- residual activity [16]: 69.3%
- residual activity [17]: 80.4%
- residual activity [18]: 90.9%
- residual activity [19]: 99.3%
- residual activity [20]: 90%
- residual activity [21]: 93.9%
- residual activity [22]: 58.4%
- residual activity [23]: 93%
- residual activity [24]: 81.1%
- residual activity [25]: 50.1%
- residual activity [26]: 100%
- residual activity [27]: 100%
- residual activity [28]: 78.4%
- residual activity [29]: 69.2%
- residual activity [30]: 100%
- residual activity [31]: 70.6%
- residual activity [32]: 96.7%
- residual activity [33]: 72.8%
- residual activity [34]: 100%
- residual activity [35]: 100%
- residual activity [36]: 100%
- residual activity [37]: 100%
- residual activity [38]: 100%
- residual activity [39]: 86.3%
- residual activity [40]: 100%
- residual activity [41]: 88.2%
- residual activity [42]: 70.8%
- residual activity [43]: 89.6%
- inhibition [44]: 50.2%
- inhibition [45]: 17.2%
